Where two headings read alike, the source gives them in different places.
System: recombinant NL4-3 virus (Renilla luciferase) in MT-2 cells
Assay: HIV cell culture assay (antiviral activity, luciferase readout in infected MT-2 cells)
Type: cell-based
Conditions: Renilla
Procedure, shortened: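 Nef-deleted NL4-3 carrying Renilla luciferase, produced by 293T transfection, used to infect MT-2 cells for 4–5 days with serial compound dilutions. Live-cell luciferase signal read as infection marker; EC50 from exponential median-effect equation.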

[1] = NL43, read-out: Activity, antiviral activity class, recombinant NL4-3 Renilla luciferase virus in MT-2 cells
[2] = NL43, recombinant NL4-3 Renilla luciferase virus in MT-2 cells

SMILES	EC50 [1] [nM]	EC50 [2] [nM]
Cc1ccc(N(C)C(=O)[C@H](Cc2ccccc2)NC(=O)NS(=O)(=O)c2ccccc2C)cc1 [Example CA-82, (S)—N-methyl-3-phenyl-N-(p-tolyl)-2-(3-(o-tolylsulfonyl)ureido)propanamide]	100 to 1000	
CCN(C(=O)[C@H](Cc1ccccc1)NC(=O)NS(=O)(=O)c1ccccc1C)c1ccc2nc(C)ccc2c1 [Example CA-83, (S)—N-ethyl-N-(2-methylquinolin-6-yl)-3-phenyl-2-(3-(o-tolylsulfonyl)ureido)propanamide]	< 100	
CCOc1ccc(N(C)C(=O)[C@H](Cc2ccccc2)NC(=O)NS(=O)(=O)c2ccccc2C)cc1 [Example CA-84, (S)—N-(4-ethoxyphenyl)-N-methyl-3-phenyl-2-(3-(o-tolylsulfonyl)ureido)propanamide]	< 100	
CC(=O)Nc1ccc(N(C)C(=O)[C@H](Cc2ccccc2)NC(=O)NS(=O)(=O)c2ccccc2C)cc1O [Example CA-85, (S)—N-(4-acetamido-3-hydroxyphenyl)-N-methyl-3-phenyl-2-(3-(o-tolylsulfonyl)ureido)propanamide]	1000 to 10000	
Cc1nc2ccc(N(C)C(=O)[C@H](Cc3ccccc3)NC(=O)NS(=O)(=O)c3ccccc3C)cc2o1 [Example CA-86, (S)—N-methyl-N-(2-methylbenzo[d]oxazol-6-yl)-3-phenyl-2-(3-(o-tolylsulfonyl)ureido)propanamide]	< 100	
Cc1nc2cc(N(C)C(=O)[C@H](Cc3ccccc3)NC(=O)NS(=O)(=O)c3ccccc3C)ccc2s1 [Example CA-87, (S)—N-methyl-N-(2-methylbenzo[d]thiazol-5-yl)-3-phenyl-2-(3-(o-tolylsulfonyl)ureido)propanamide]	100 to 1000	
Cc1ccccc1S(=O)(=O)NC(=O)N[C@@H](Cc1ccccc1)C(=O)N(C)c1ccc2scnc2c1 [Example CA-88, (S)—N-(benzo[d]thiazol-5-yl)-N-methyl-3-phenyl-2-(3-(o-tolylsulfonyl)ureido)propanamide]	< 100	60
CCN(C(=O)[C@H](Cc1ccccc1)NC(=O)NS(=O)(=O)c1ccccc1C)c1ccc(O)c(NC=O)c1 [Example CA-89, (S)—N-ethyl-N-(3-formamido-4-hydroxyphenyl)-3-phenyl-2-(3-(o-tolylsulfonyl)ureido)propanamide]	100 to 1000	600
Cc1ccccc1S(=O)(=O)NC(=O)N[C@@H](Cc1ccccc1)C(=O)N(C)c1ccc(O)c(NC=O)c1 [Example CA-90, (S)—N-(3-formamido-4-hydroxyphenyl)-N-methyl-3-phenyl-2-(3-(o-tolylsulfonyl)ureido)propanamide]	1000 to 10000	
Cc1ccccc1S(=O)(=O)NC(=O)N[C@@H](Cc1ccccc1)C(=O)N(C)c1cccc(C#N)c1 [Example CA-91, (S)—N-(3-cyanophenyl)-N-methyl-3-phenyl-2-(3-(o-tolylsulfonyl)ureido)propanamide]	100 to 1000	
Cc1ccccc1S(=O)(=O)NC(=O)N[C@@H](Cc1ccccc1)C(=O)N(C)c1ccc(NC(=O)N(C)C)cc1 [Example CA-92, (S)—N-(4-(3,3-dimethylureido)phenyl)-N-methyl-3-phenyl-2-(3-(o-tolylsulfonyl)ureido)propanamide]	1000 to 10000	
COC(=O)Nc1ccc(N(C)C(=O)[C@H](Cc2ccccc2)NC(=O)NS(=O)(=O)c2ccccc2C)cc1 [Example CA-93, (S)-methyl (4-(N-methyl-3-phenyl-2-(3-(o-tolylsulfonyl)ureido)propanamido)phenyl)carbamate]	< 100	
Cc1ccccc1S(=O)(=O)NC(=O)N[C@@H](Cc1ccccc1)C(=O)N(C)c1cccc(C(N)=O)c1 [Example CA-94, (S)-3-(N-methyl-3-phenyl-2-(3-(o-tolylsulfonyl)ureido)propanamido)benzamide]	1000 to 10000	3260
Cc1ccccc1S(=O)(=O)NC(=O)N[C@@H](Cc1ccccc1)C(=O)N(C)c1ccc2ncsc2c1 [Example CA-95, (S)—N-(benzo[d]thiazol-6-yl)-N-methyl-3-phenyl-2-(3-(o-tolylsulfonyl)ureido)propanamide]	< 100	
Cc1ccccc1S(=O)(=O)NC(=O)N[C@@H](Cc1ccccc1)C(=O)N(C)c1ccc2ncncc2c1 [Example CA-96, (S)—N-methyl-3-phenyl-N-(quinazolin-6-yl)-2-(3-(o-tolylsulfonyl)ureido)propanamide]	100 to 1000	
Cc1ccccc1S(=O)(=O)NC(=O)N[C@@H](Cc1ccccc1)C(=O)N(C)c1ccc(C#N)cc1 [Example CA-97, (S)—N-(4-cyanophenyl)-N-methyl-3-phenyl-2-(3-(o-tolylsulfonyl)ureido)propanamide]	100 to 1000	
Cc1ccccc1S(=O)(=O)NC(=O)N[C@@H](Cc1ccccc1)C(=O)N(C)c1ccc2cccnc2c1 [Example CA-98, (S)—N-methyl-3-phenyl-N-(quinolin-7-yl)-2-(3-(o-tolylsulfonyl)ureido)propanamide]	100 to 1000	120

SMILES	EC50 [1] [nM]	EC50 [2] [nM]
Cc1ccccc1S(=O)(=O)NC(=O)N[C@@H](Cc1ccccc1)C(=O)N(C)c1ccc2cc[nH]c(=O)c2c1 [Example CA-99, (S)—N-methyl-N-(1-oxo-1,2-dihydroisoquinolin-7-yl)-3-phenyl-2-(3-(o-tolylsulfonyl)ureido)propanamide]	1000 to 10000	
Cc1ccccc1S(=O)(=O)NC(=O)N[C@@H](Cc1ccccc1)C(=O)N(C)c1ccc(F)c(C(N)=O)c1 [Example CA-100, (S)-2-fluoro-5-(N-methyl-3-phenyl-2-(3-(o-tolylsulfonyl)ureido)propanamido)benzamide]	1000 to 10000	
Cc1ccccc1S(=O)(=O)NC(=O)N[C@@H](Cc1ccccc1)C(=O)N(C)c1cccc2[nH]cnc12 [Example CA-101, (S)—N-(1H-benzo[d]imidazol-4-yl)-N-methyl-3-phenyl-2-(3-(o-tolylsulfonyl)ureido)propanamide]	1000 to 10000	
Cc1ccccc1S(=O)(=O)NC(=O)N[C@@H](Cc1cc(F)cc(F)c1)C(=O)N(C)c1ccc(F)c(C(N)=O)c1 [Example CA-102, (S)-5-(3-(3,5-difluorophenyl)-N-methyl-2-(3-(o-tolylsulfonyl)ureido)propanamido)-2-fluorobenzamide]	1000 to 10000	2580
Cc1ccccc1S(=O)(=O)NC(=O)N[C@@H](Cc1cc(F)cc(F)c1)C(=O)N(C)c1ccc2cc[nH]c(=O)c2c1 [Example CA-103, (S)-3-(3,5-difluorophenyl)-N-methyl-N-(1-oxo-1,2-dihydroisoquinolin-7-yl)-2-(3-(o-tolylsulfonyl)ureido)propanamide]	1000 to 10000	1330
Cc1ccccc1S(=O)(=O)NC(=O)N[C@@H](Cc1cc(F)cc(F)c1)C(=O)N(C)c1ccc2cccnc2c1 [Example CA-104, (S)-3-(3,5-difluorophenyl)-N-methyl-N-(quinolin-7-yl)-2-(3-(o-tolylsulfonyl)ureido)propanamide]	100 to 1000	
Cc1ccccc1S(=O)(=O)NC(=O)N[C@@H](Cc1cc(F)cc(F)c1)C(=O)N(C)c1cc2ccccc2cn1 [Example CA-105, (S)-3-(3,5-difluorophenyl)-N-(isoquinolin-3-yl)-N-methyl-2-(3-(o-tolylsulfonyl)ureido)propanamide]	100 to 1000	
CNS(=O)(=O)c1cccc(N(C)C(=O)[C@H](Cc2cc(F)cc(F)c2)NC(=O)NS(=O)(=O)c2ccccc2C)c1 [Example CA-106, (S)-3-(3,5-difluorophenyl)-N-methyl-N-(3-(N-methylsulfamoyl)phenyl)-2-(3-(o-tolylsulfonyl)ureido)propanamide]	1000 to 10000	
Cc1ccccc1S(=O)(=O)NC(=O)N[C@@H](Cc1cc(F)cc(F)c1)C(=O)N(C)c1ccccc1F [Example CA-107, (S)-3-(3,5-difluorophenyl)-N-(2-fluorophenyl)-N-methyl-2-(3-(o-tolylsulfonyl)ureido)propanamide]	1000 to 10000	
Cc1ccccc1S(=O)(=O)NC(=O)N[C@@H](Cc1cc(F)cc(F)c1)C(=O)N(C)c1ccc(OC(F)(F)F)cc1 [Example CA-108, (S)-3-(3,5-difluorophenyl)-N-methyl-2-(3-(o-tolylsulfonyl)ureido)-N-(4-(trifluoromethoxy)phenyl)propanamide]	100 to 1000	
Cc1ccccc1S(=O)(=O)NC(=O)N[C@@H](Cc1cc(F)cc(F)c1)C(=O)N(C)c1cccc2ncccc12 [Example CA-109, (S)-3-(3,5-difluorophenyl)-N-methyl-N-(quinolin-5-yl)-2-(3-(o-tolylsulfonyl)ureido)propanamide]	100 to 1000	370
Cc1ccccc1S(=O)(=O)NC(=O)N[C@@H](Cc1cc(F)cc(F)c1)C(=O)N(C)c1cccc2cnccc12 [Example CA-110, (S)-3-(3,5-difluorophenyl)-N-(isoquinolin-5-yl)-N-methyl-2-(3-(o-tolylsulfonyl)ureido)propanamide]	100 to 1000	
Cc1ccccc1S(=O)(=O)NC(=O)N[C@@H](Cc1cc(F)cc(F)c1)C(=O)N(C)c1cccc(Cl)c1 [Example CA-111, (S)—N-(3-chlorophenyl)-3-(3,5-difluorophenyl)-N-methyl-2-(3-(o-tolylsulfonyl)ureido)propanamide]	1000 to 10000	
Cc1ccccc1S(=O)(=O)NC(=O)N[C@@H](Cc1cc(F)cc(F)c1)C(=O)N(C)c1ccc(F)cc1F [Example CA-112, (S)—N-(2,4-difluorophenyl)-3-(3,5-difluorophenyl)-N-methyl-2-(3-(o-tolylsulfonyl)ureido)propanamide]	1000 to 10000	1290
COc1cc(N(C)C(=O)[C@H](Cc2ccccc2)NC(=O)NS(=O)(=O)c2ccccc2C)cc(OC)c1OC [Example JB-82, (S)—N-methyl-3-phenyl-2-(3-(o-tolylsulfonyl)ureido)-N-(3,4,5-trimethoxyphenyl)propanamide]	1000 to 10000	
COc1ccc(N(C)C(=O)[C@H](Cc2ccccc2)NC(=O)NS(=O)(=O)c2ccccc2C)c(C)c1 [Example JB-83, (S)—N-(4-methoxy-2-methylphenyl)-N-methyl-3-phenyl-2-(3-(o-tolylsulfonyl)ureido)propanamide]	100 to 1000	

— patent US10035760B2, “Inhibitors of human immunodeficiency virus replication” (priority 2013, dated 2018)
